In article PMC10192880 (Frontiers in Pharmacology, 2023):

Tests used:
clinical = assay: clinical
Method: This was an open-label, three-period, controlled before-and-after trial (China Clinical Trial Registry: ChiCTR1900024344). It was conducted at the Second Affiliated Hospital within Tianjin University of Traditional Chinese Medicine (Tianjin, China). The protocol was approved by the ethics committees of the Second Affiliated Hospital within Tianjin University of Traditional Chinese Medicine. Written informed consent was provided by all participants. This trial was in accordance with the Declaration of Helsinki 1964 and its later amendments.
Men and women aged 18–45 years participated in this trial if they were healthy and the EPHX1 A/A genotype was confirmed. The key exclusion criteria were coagulation disorders or allergies to drugs.
Our trial comprised three periods. […] After 3 days, individuals entered the second period, in which CDDP (10 pills, p. o., t.d.s.) was administered for 5 days.
Moreover, blood samples were taken from participants once a day before CDDP administration for assays of coagulation indices to ensure safety.

[1] = tested on: transfected EPHX1 A/G and BL cells; assay: MTT cell viability of transfected cells; type: cell-based, human; conditions: 0.0625–8.00 mg/mL for 24 h or 72 h, dose-dependent
Method: CDDP was manufactured by Tianjin Tasly Group (Tianjin, China). […] Transfected cells were plated evenly on a 96-well cell-culture plate with ∼8,000 cells/well. They were cultured for 24 h at 37°C. […] Subsequently, to each well was added 10 µL of 3-(4,5-Dimethylthiazol-2-yl)-2,5-diphenyltetrazolium bromide solution (5 mg/mL), and cells were allowed to incubate for an additional 4 h in an atmosphere of 5% CO2 at 37°C. Then, the cells were centrifugated and the […]. Finally, the blue-purple crystals were dissolved using dimethyl sulfoxide (150 µL) with agitation for 10 min. The absorbance of each well was determined at 490 nm. Cell viability (Supplementary Figure S1) was calculated according to the formula: Cell viability=absorbanceexperiment/absorbancecontrol×100%
Thus, the incubation time selected at 24 h.

[2] = by dose adjustment (residual drug converted into a dose), third period: warfarin + CDDP
[3] = by dose adjustment, first period: warfarin 3 mg p.o. alone
[4] = first period: warfarin 3 mg p.o. alone, HVs EPHX1 A/A
[5] = third period: warfarin 3 mg p.o. + CDDP 10 pills p.o., HVs EPHX1 A/A

SMILES | AUC0-144 (clinical; [2]) [ng/h/mL] | Cmax (clinical; [2]) [ng/mL] | Tmax (clinical; [2]) [h] | Vd (clinical; [2]) [mL] | AUC0-144 (clinical; [3]) [ng/h/mL] | CL (clinical; [3]) [mL/h] | Cmax (clinical; [3]) [ng/mL] | Tmax (clinical; [3]) [h] | Vd (clinical; [3]) [mL] | AUC0-144 (clinical; [4]) [ng/h/mL] | CL (clinical; [4]) [mL/h] | Cmax (clinical; [4]) [ng/mL] | Tmax (clinical; [4]) [h] | Vd (clinical; [4]) [mL] | AUC0-144 (clinical; [5]) [ng/h/mL] | CL (clinical; [5]) [mL/h] | Cmax (clinical; [5]) [ng/mL] | Tmax (clinical; [5]) [h] | Vd (clinical; [5]) [mL] | other results
CC(=O)CC(c1ccccc1)c1c(O)c2ccccc2oc1=O (centres unmarked) [Warfarin] | – | – | – | – | – | – | – | – | – | – | – | – | – | – | – | – | – | – | – | CL (clinical; both, human, in vivo, po, 3 mg): 144.9 ± 36.87 mL/h; Cmax (clinical; both, human, in vivo, po, 3 mg): 403 ± 148 ng/mL; Tmax (clinical; both, human, in vivo, po, 3 mg): 1.86 ± 1.44 h; Vd (clinical; both, human, in vivo, po, 3 mg): 13393 ± 3036 mL; cells' viability [1]: significantly decreased
CC(=O)C[C@@H](c1ccccc1)c1c(O)c2ccccc2oc1=O [S-Warfarin] | 7223 ± 1727 | 261.9 ± 54.50 | 0.714 ± 0.393 | 32429 ± 3754 | 5812 ± 1632 | 466.0 ± 109.7 | 199.0 ± 76.90 | 1.500 ± 1.414 | 37594 ± 9569 | 5812 ± 1632 | 466.0 ± 109.7 | 199.0 ± 76.90 | 1.500 ± 1.414 | 37594 ± 9569 | 7223 ± 1727 | 374.1 ± 82.69 | 261.9 ± 54.50 | 0.714 ± 0.393 | 28630 ± 3437 | CL (clinical; [2]): 423.5 ± 91.18 mL/h
CC(=O)C[C@H](c1ccccc1)c1c(O)c2ccccc2oc1=O [R-Warfarin] | 14594 ± 3088 | 273.9 ± 58.10 | 0.7143 ± 0.3934 | 18445 ± 2408 | 11630 ± 2938 | 210.3 ± 57.13 | 204.6 ± 71.38 | 1.857 ± 1.435 | 20505 ± 4506 | 11630 ± 2938 | 210.3 ± 57.13 | 204.6 ± 71.38 | 1.857 ± 1.435 | 20505 ± 4506 | 14594 ± 3088 | 164.8 ± 51.16 | 273.9 ± 58.10 | 0.7143 ± 0.3934 | 16283 ± 2164 | –
